target: T1, human α7 receptor (Homo sapiens, UniProt P36544); assay: α7 NNR flux assay (FDSS Ca assay, Calcium-4 dye, positive allosteric modulation of acetylcholine response); format: cell-based; settings: human α7 receptor stably expressed in rat GH4C1 cell line; acetylcholine 20 μM (~EC100); % modulation relative to reference PNU-120596 set to 100%
T1 construct: host or cells: rat GH4C1 cell line
Experimental: The nicotinic acetylcholine receptor α7 is a calcium-permeable ion channel, whose activity can be measured by over expression in mammalian cells or oocytes in this version of the assay, the human α7 receptor is stably expressed in the rat GH4C1 cell line. The assay was used to identify positive allosteric modulators (PAMs) of the α7 receptor. Activation of the channel was measured by loading cells with the calcium-sensitive fluorescent dye Calcium-4 (Assay kit from Molecular Devices), and then measuring real-time changes in fluorescence upon treatment with test compounds.
The cell line ChanClone GH4C1-nAChRalpha7 from Genionics was seeded from frozen stock in 384-well plates in culture media 2-3 days before experiment to form an approximately 80% confluent layer on the day of experiment.
Two or three days before the experiment the cells were seeded in 384 well plates from Greiner bio-one (781946, CELLCOAT, Poly-D-Lysine, black, μClear).
The cells were seeded in 384 well plates with 30 μL/well (30000 cells/well) while stirring the cell suspension or otherwise preventing the cells from precipitating.
The loading buffer was 5% v/v Calcium-4 Kit and 2.5 mM Probenecid in assay buffer.
Culture media were removed from the cell plates and 20 μL loading buffer was added in each well. The cell plates were placed in trays and incubated 90 minutes in the incubator (37° C.). Thereafter the plates were incubated 30 minutes at room temperature, still protected from light.
The assay buffer was HBSS with 20 mM HEPES, pH 7.4 and 3 mM CaCl2.
200 nL 10 mM compound solution in DMSO was diluted in 50 μL assay buffer. The final test concentrations in the cell plates were 20-10-5-2.5-1:25-0.625-0.312-0.156-0.078-0.039 μM. Assay buffer and 3 μM PNU-120596 were used for control.
The agonist acetylcholine was added to a final concentration of 20 μM (˜EC100).
In the FDSS7000 the Ex480-Em540 was measured with 1 second intervals. The baseline was made of 5 frames before addition of test compounds, and 95 frames more were made before addition of acetylcholine. The measurement stopped 30 frames after the 2nd addition. Raw data for each well were collected as “the maximum fluorescence count” in the interval 100-131 seconds and as “the average fluorescence count” in the interval 96-100 seconds. The positive allosteric modulation in the 2nd addition was the enhancement of agonist response with test compound compared to agonist alone.
Results were calculated as % modulation of test compound compared to the reference PNU-120596 set to 100%.

T1 sequence (P36544 23-502): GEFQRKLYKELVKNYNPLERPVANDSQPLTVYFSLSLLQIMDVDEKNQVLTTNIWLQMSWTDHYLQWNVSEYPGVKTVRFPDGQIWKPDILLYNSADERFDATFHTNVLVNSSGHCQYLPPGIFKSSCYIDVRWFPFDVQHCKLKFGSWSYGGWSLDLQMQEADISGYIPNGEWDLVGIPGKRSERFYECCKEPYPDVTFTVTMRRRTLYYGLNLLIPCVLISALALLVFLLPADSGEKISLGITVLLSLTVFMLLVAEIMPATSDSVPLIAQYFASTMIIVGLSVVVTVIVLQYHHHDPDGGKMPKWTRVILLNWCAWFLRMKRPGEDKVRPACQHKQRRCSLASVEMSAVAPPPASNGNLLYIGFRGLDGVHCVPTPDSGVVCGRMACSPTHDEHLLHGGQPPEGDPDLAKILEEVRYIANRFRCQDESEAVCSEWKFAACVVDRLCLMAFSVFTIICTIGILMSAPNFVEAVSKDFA

| SMILES | EC50 |
| --- | --- |
| CCCOc1ccc([C@H](CO)NC(=O)[C@H]2C[C@@H]2c2cccc(F)c2)cn1 [Compound 29, (1S,2S)-2-(3-Fluoro-phenyl)-cyclopropanecarboxylic acid [(R)-2-hydroxy-1-(6-propoxy-pyridin-3-yl)-ethyl]-amide] | 0.86 µM |
| [2H]C([2H])([2H])C([2H])([2H])Oc1ccc([C@H](CO)NC(=O)[C@H]2C[C@@H]2c2ccccc2)cn1 [Compound 38, (1S,2S)-2-Phenyl-cyclopropane carboxylic acid [(R)-1-(6-(1,1,2,2-d5)-ethoxy-pyridin-3-yl)-2-hydroxy-ethyl]-amide] | 0.97 µM |
| [2H]C([2H])(C)Oc1ccc([C@H](CO)NC(=O)[C@H]2C[C@@H]2c2ccc(F)cc2)cn1 [Compound 37, (1S,2S)-2-(4-Fluoro-phenyl)-cyclopropanecarboxylic acid [(R)-1-(6-(1,1-d2)-ethoxy-pyridin-3-yl)-2-hydroxy-ethyl]-amide] | 0.7 µM |
| [2H]C([2H])([2H])C([2H])([2H])Oc1ccc([C@H](CO)NC(=O)[C@H]2C[C@@H]2c2ccc(F)cc2)cn1 [Compound 34, (1S,2S)-2-(4-Fluoro-phenyl)-cyclopropanecarboxylic acid [(R)-1-(6-(1,1,2,2,2-d5)-ethoxy-pyridin-3-yl)-2-hydroxy-ethyl]-amide] | 0.7 µM |
| Cc1ccc([C@H](CO)NC(=O)[C@H]2C[C@@H]2c2ccccc2)cn1 [Compound 25, (1S,2S)-2-Phenyl-cyclopropanecarboxylic acid [(R)-2-hydroxy-1-(6-methyl-pyridin-3-yl)-ethyl]-amide] | 7.3 µM |
| Cc1ccc([C@H](C)NC(=O)[C@H]2C[C@@H]2c2ccccc2)nc1 [Compound 2, (1S,2S)-2-Phenyl-cyclopropanecarboxylic acid [(S)-1-(5-methyl-pyridin-2-yl)-ethyl]-amide] | 5.6 µM |
| [2H]C([2H])([2H])COc1ccc([C@H](CO)NC(=O)[C@H]2C[C@@H]2c2ccccc2)cn1 [Compound 31, (1S,2S)-2-Phenyl-cyclopropanecarboxylic acid [(R)-1-(6-(2,2,2-d3)-ethoxy-pyridin-3-yl)-2-hydroxy-ethyl]-amide] | 1.7 µM |
| COc1ccc([C@H](CO)NC(=O)[C@H]2C[C@@H]2c2ccccc2)cn1 [Compound 24, (1S,2S)-2-Phenyl-cyclopropanecarboxylic acid [(R)-2-hydroxy-1-(6-methoxy-pyridin-3-yl)-ethyl]-amide] | 5.2 µM |
| CCOc1ccc([C@H](C)NC(=O)[C@H]2C[C@@H]2c2ccccc2)cn1 [Compound 7, (1S,2S)-2-Phenyl-cyclopropanecarboxylic acid [(S)-1-(6-ethoxy-pyridin-3-yl)-ethyl]-amide] | 0.96 µM |
| [2H]C([2H])([2H])COc1ccc([C@H](CO)NC(=O)[C@H]2C[C@@H]2c2cccc(F)c2)cn1 [Compound 39, (1S,2S)-2-(3-Fluoro-phenyl)-cyclopropanecarboxylic acid [(R)-1-(6-(2,2,2-d3)-ethoxy-pyridin-3-yl)-2-hydroxy-ethyl]-amide] | 0.72 µM |
| [2H]C([2H])(C)Oc1ccc([C@H](CO)NC(=O)[C@H]2C[C@@H]2c2cccc(F)c2)cn1 [Compound 32, (1S,2S)-2-(3-Fluoro-phenyl)-cyclopropanecarboxylic acid [(R)-1-(6-(1,1-d2)-ethoxy-pyridin-3-yl)-2-hydroxy-ethyl]-amide] | 0.53 µM |
| CCOc1ccc([C@H](COC)NC(=O)[C@H]2C[C@@H]2c2ccccc2)cn1 [Compound 46, (1S,2S)-2-Phenyl-cyclopropanecarboxylic acid [(R)-1-(6-ethoxy-pyridin-3-yl)-2-methoxy-ethyl]-amide] | 0.46 µM |
| COC[C@H](NC(=O)[C@H]1C[C@@H]1c1ccccc1)c1ccc(O[C@@H]2CCOC2)nc1 [Compound 47, (1S,2S)—N-[(1R)-2-methoxy-1-[6-[(3R)-tetrahydrofuran-3-yl]oxy-3-pyridyl]-ethyl]-2-phenyl-cyclopropanecarboxamide] | 1 µM |
| N#Cc1ccc([C@H](CO)NC(=O)[C@H]2C[C@@H]2c2ccccc2)nc1 [Compound 23, (1S,2S)-2-Phenyl-cyclopropanecarboxylic acid [(R)-1-(5-cyano-pyridin-2-yl)-2-hydroxy-ethyl]-amide] | 7.6 µM |
| CCOc1ccc([C@H](CO)NC(=O)[C@H]2C[C@@H]2c2cccc(F)c2)cn1 [Compound 27, (1S,2S)-2-(3-Fluoro-phenyl)-cyclopropanecarboxylic acid [(R)-1-(6-ethoxy-pyridin-3-yl)-2-hydroxy-ethyl]-amide] | 0.39 µM |
| O=C(N[C@@H](CO)c1ccc(OC2CCC2)nc1)[C@H]1C[C@@H]1c1ccccc1 [Compound 40, (1S,2S)-2-Phenyl-cyclopropanecarboxylic acid [(R)-1-(6-cyclobutoxy-pyridin-3-yl)-2-hydroxy-ethyl]-amide] | 0.89 µM |
| COc1ccc([C@H](C)NC(=O)[C@H]2C[C@@H]2c2ccccc2)cn1 [Compound 3, (S, 2S)-2-Phenyl-cyclopropanecarboxylic acid-[(S)-1-(6-methoxy-pyridin-3-yl)-ethyl]-amide] | 5.8 µM |
| C[C@H](NC(=O)[C@H]1C[C@@H]1c1ccccc1)c1ccc(O[C@@H]2CCOC2)nc1 [Compound 14, (1S,2S)-2-Phenyl-cyclopropanecarboxylic acid [(S)-1-{6-[(R)-(tetrahydro-furan-3-yl)oxy]-pyridin-3-yl]-ethyl}-amide] | 1.6 µM |
| [2H]C([2H])(C)Oc1ccc([C@H](CO)NC(=O)[C@H]2C[C@@H]2c2ccccc2)cn1 [Compound 36, (1S,2S)-2-Phenyl-cyclopropanecarboxylic acid [(R)-1-(6-(1,1-d2)-ethoxy-pyridin-3-yl)-2-hydroxy-ethyl]-amide] | 1.6 µM |
| CCOc1cc([C@H](C)NC(=O)[C@H]2C[C@@H]2c2ccccc2)ccn1 [Compound 12, (1S,2S)-2-Phenyl-cyclopropanecarboxylic acid [(S)-1-(2-ethoxy-pyridin-4-yl)-ethyl]-amide] | 1.2 µM |
| CCc1ccc([C@H](C)NC(=O)[C@H]2C[C@@H]2c2ccccc2)cn1 [Compound 8, (1S,2S)-2-Phenyl-cyclopropanecarboxylic acid [(S)-1-(6-ethyl-pyridin-3-yl)-ethyl]-amide] | 3.7 µM |
| CC(C)Oc1ccc([C@H](CO)NC(=O)[C@H]2C[C@@H]2c2ccccc2)cn1 [Compound 26, (1S,2S)-2-Phenyl-cyclopropanecarboxylic acid [(R)-2-hydroxy-1-(6-isopropoxy-pyridin-3-yl)-ethyl]-amide] | 0.39 µM |
| O=C(N[C@@H](CO)c1ccc(OC2CCC2)nc1)[C@H]1C[C@@H]1c1cccc(F)c1 [Compound 41, (1S,2S)-2-(3-Fluoro-phenyl)-cyclopropanecarboxylic acid [(R)-1-(6-cyclobutoxy-pyridin-3-yl)-2-hydroxy-ethyl]-amide] | 1.6 µM |
| CCOc1ccc([C@H](CO)NC(=O)[C@H]2C[C@@H]2c2ccccc2)cn1 [Compound 33, (1S,2S)-2-Phenyl-cyclopropanecarboxylic acid [(R)-1-(6-ethoxy-pyridin-3-yl)-2-hydroxy-ethyl]-amide] | 1 µM |
| COCCOc1ccc([C@H](C)NC(=O)[C@H]2C[C@@H]2c2ccccc2)cn1 [Compound 11, (1S,2S)-2-Phenyl-cyclopropanecarboxylic acid {(S)-1-[6-(2-methoxy-ethoxy)-pyridin-3-yl]-ethyl}-amide] | 3.8 µM |
| CCOc1ccc([C@H](CO)NC(=O)[C@H]2C[C@@H]2c2ccccc2)nc1 [Compound 52, (1S,2S)-2-Phenyl-cyclopropanecarboxylic acid [(R)-1-(5-ethoxy-pyridin-2-yl)-2-hydroxy-ethyl]-amide] | 2 µM |
| O=C(N[C@@H](CO)c1ccc(OC2CCC2)nc1)[C@H]1C[C@@H]1c1ccc(F)cc1 [Compound 42, (1S,2S)-2-(4-Fluoro-phenyl)-cyclopropanecarboxylic acid [(R)-1-(6-cyclobutoxy-pyridin-3-yl)-2-hydroxy-ethyl]-amide] | 0.79 µM |
| CCOc1ncc([C@H](C)NC(=O)[C@H]2C[C@@H]2c2ccccc2)cn1 [Compound 17, (1S,2S)-2-Phenyl-cyclopropanecarboxylic acid [(S)-1-(2-ethoxy-pyrimidin-5-yl)-ethyl]-amide] | 3.7 µM |
| Cc1ccc([C@H](C)NC(=O)[C@H]2C[C@@H]2c2ccccc2)cn1 [Compound 4, (1S,2S)-2-Phenyl-cyclopropanecarboxylic acid [(S)-1-(6-methyl-pyridin-3-yl)-ethyl]-amide] | 8.1 µM |
